Assays:
Assay in all cases: relative viability (nuclei count vs DMSO), 5 days (fraction); higher = more cells survive
[1] = tested on: 201T
Summary of the method: (§1)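 For relative viability, nuclei counts in treated wells were divided by those in vehicle wells. Lung cancer cell lines had been pin-tool dosed in 1536-well plates the day after seeding and cultured for 5 days, then fixed and stained in one step (final 0.05% Triton X-100, 1% formaldehyde, 1 ug/ml Hoechst) and imaged at 4×. Doses were one drug alone or a fixed anchor-drug dose plus five library-drug doses (not always all listed) in √10 steps, and values are duplicate-plate medians.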

[2] = tested on: A-427
Summary of the method: as §1

[3] = tested on: ABC-1
Summary of the method: as §1

[4] = tested on: BEN
Summary of the method: as §1

[5] = tested on: CAL-12T
Summary of the method: as §1

[6] = tested on: H3255
Summary of the method: as §1

[7] = tested on: HCC-15
Summary of the method: as §1

[8] = tested on: LC-2-ad
Summary of the method: as §1

[9] = tested on: LCLC-97TM1
Summary of the method: as §1

[10] = tested on: NCI-H1650
Summary of the method: as §1

[11] = tested on: NCI-H1651
Summary of the method: as §1

[12] = tested on: NCI-H1792
Summary of the method: as §1

[13] = tested on: NCI-H1915
Summary of the method: as §1

[14] = tested on: NCI-H1944
Summary of the method: as §1

[15] = tested on: NCI-H2023
Summary of the method: as §1

[16] = tested on: NCI-H2087
Summary of the method: as §1

[17] = tested on: NCI-H441
Summary of the method: as §1

[18] = tested on: NCI-H460
Summary of the method: as §1

[19] = tested on: NCI-H520
Summary of the method: as §1

[20] = tested on: NCI-H596
Summary of the method: as §1

[21] = tested on: NCI-H650
Summary of the method: as §1

[22] = tested on: NCI-H661
Summary of the method: as §1

[23] = tested on: NCI-H727
Summary of the method: as §1

[24] = tested on: PC-3 [JPC-3]
Summary of the method: as §1

COc1cc(N2CCC(C(N)=O)CC2)ccc1Nc1nc(N)c(Cl)c(Nc2ccccc2S(=O)(=O)C(C)C)n1 [HG-5-88-01] + N=C(N)NC(=N)NCCc1ccccc1 [Phenformin] (partner 250 µM)
relative viability ([1]; first compound 0.04 µM): 0.54
relative viability ([1]; first compound 0.1265 µM): 0.452
relative viability ([1]; first compound 0.4 µM): 0.479
relative viability ([1]; first compound 1.265 µM): 0.547
relative viability ([1]; first compound 4 µM): 0.397
relative viability ([2]; first compound 0.04 µM): 0.36
relative viability ([2]; first compound 0.1265 µM): 0.336
relative viability ([2]; first compound 0.4 µM): 0.344
relative viability ([2]; first compound 1.265 µM): 0.367
relative viability ([2]; first compound 4 µM): 0.214
relative viability ([3]; first compound 0.04 µM): 0.272
relative viability ([3]; first compound 0.1265 µM): 0.233
relative viability ([3]; first compound 0.4 µM): 0.2
relative viability ([3]; first compound 1.265 µM): 0.207
relative viability ([3]; first compound 4 µM): 0.24
relative viability ([4]; first compound 0.04 µM): 0.304
relative viability ([4]; first compound 0.1265 µM): 0.271
relative viability ([4]; first compound 0.4 µM): 0.274
relative viability ([4]; first compound 1.265 µM): 0.267
relative viability ([4]; first compound 4 µM): 0.285
relative viability ([5]; first compound 0.04 µM): 0.543
relative viability ([5]; first compound 0.1265 µM): 0.572
relative viability ([5]; first compound 0.4 µM): 0.533
relative viability ([5]; first compound 1.265 µM): 0.392
relative viability ([5]; first compound 4 µM): 0.253
relative viability ([6]; first compound 0.04 µM): 0.381
relative viability ([6]; first compound 0.1265 µM): 0.325
relative viability ([6]; first compound 0.4 µM): 0.332
relative viability ([6]; first compound 4 µM): 0.32
relative viability ([7]; first compound 0.04 µM): 0.528
relative viability ([7]; first compound 0.1265 µM): 0.488
relative viability ([7]; first compound 0.4 µM): 0.4
relative viability ([7]; first compound 1.265 µM): 0.461
relative viability ([7]; first compound 4 µM): 0.231
relative viability ([8]; first compound 0.04 µM): 0.717
relative viability ([8]; first compound 0.1265 µM): 0.69
relative viability ([8]; first compound 0.4 µM): 0.598
relative viability ([8]; first compound 1.265 µM): 0.472
relative viability ([8]; first compound 4 µM): 0.415
relative viability ([9]; first compound 0.04 µM): 0.483
relative viability ([9]; first compound 0.1265 µM): 0.42
relative viability ([9]; first compound 0.4 µM): 0.394
relative viability ([9]; first compound 1.265 µM): 0.357
relative viability ([9]; first compound 4 µM): 0.204
relative viability ([10]; first compound 0.04 µM): 0.452
relative viability ([10]; first compound 0.1265 µM): 0.386
relative viability ([10]; first compound 0.4 µM): 0.254
relative viability ([10]; first compound 1.265 µM): 0.236
relative viability ([10]; first compound 4 µM): 0.259
relative viability ([11]; first compound 0.04 µM): 0.358
relative viability ([11]; first compound 0.1265 µM): 0.341
relative viability ([11]; first compound 0.4 µM): 0.367
relative viability ([11]; first compound 1.265 µM): 0.348
relative viability ([11]; first compound 4 µM): 0.346
relative viability ([12]; first compound 0.04 µM): 0.897
relative viability ([12]; first compound 0.1265 µM): 0.647
relative viability ([12]; first compound 0.4 µM): 0.548
relative viability ([12]; first compound 1.265 µM): 0.525
relative viability ([12]; first compound 4 µM): 0.291
relative viability ([13]; first compound 0.04 µM): 0.38
relative viability ([13]; first compound 0.1265 µM): 0.354
relative viability ([13]; first compound 0.4 µM): 0.381
relative viability ([13]; first compound 1.265 µM): 0.416
relative viability ([13]; first compound 4 µM): 0.328
relative viability ([14]; first compound 0.04 µM): 0.213
relative viability ([14]; first compound 0.1265 µM): 0.241
relative viability ([14]; first compound 0.4 µM): 0.262
relative viability ([14]; first compound 1.265 µM): 0.209
relative viability ([14]; first compound 4 µM): 0.22
relative viability ([15]; first compound 0.04 µM): 0.521
relative viability ([15]; first compound 0.1265 µM): 0.466
relative viability ([15]; first compound 0.4 µM): 0.473
relative viability ([15]; first compound 1.265 µM): 0.411
relative viability ([15]; first compound 4 µM): 0.34
relative viability ([16]; first compound 0.04 µM): 0.523
relative viability ([16]; first compound 0.1265 µM): 0.49
relative viability ([16]; first compound 0.4 µM): 0.469
relative viability ([16]; first compound 1.265 µM): 0.342
relative viability ([16]; first compound 4 µM): 0.319
relative viability ([17]; first compound 0.04 µM): 0.835
relative viability ([17]; first compound 0.1265 µM): 0.789
relative viability ([17]; first compound 0.4 µM): 0.852
relative viability ([17]; first compound 1.265 µM): 0.589
relative viability ([17]; first compound 4 µM): 0.294
relative viability ([18]; first compound 0.04 µM): 0.497
relative viability ([18]; first compound 0.1265 µM): 0.491
relative viability ([18]; first compound 0.4 µM): 0.587
relative viability ([18]; first compound 1.265 µM): 0.51
relative viability ([18]; first compound 4 µM): 0.214
relative viability ([19]; first compound 0.04 µM): 0.441
relative viability ([19]; first compound 0.1265 µM): 0.67
relative viability ([19]; first compound 0.4 µM): 0.57
relative viability ([19]; first compound 1.265 µM): 0.431
relative viability ([19]; first compound 4 µM): 0.492
relative viability ([20]; first compound 0.04 µM): 0.657
relative viability ([20]; first compound 0.1265 µM): 0.807
relative viability ([20]; first compound 0.4 µM): 0.612
relative viability ([20]; first compound 1.265 µM): 0.728
relative viability ([20]; first compound 4 µM): 0.379
relative viability ([21]; first compound 0.04 µM): 0.429
relative viability ([21]; first compound 0.1265 µM): 0.492
relative viability ([21]; first compound 0.4 µM): 0.417
relative viability ([21]; first compound 1.265 µM): 0.424
relative viability ([21]; first compound 4 µM): 0.335
relative viability ([22]; first compound 0.04 µM): 0.301
relative viability ([22]; first compound 0.1265 µM): 0.277
relative viability ([22]; first compound 0.4 µM): 0.259
relative viability ([22]; first compound 1.265 µM): 0.24
relative viability ([22]; first compound 4 µM): 0.248
relative viability ([23]; first compound 0.04 µM): 0.554
relative viability ([23]; first compound 0.1265 µM): 0.484
relative viability ([23]; first compound 0.4 µM): 0.394
relative viability ([23]; first compound 1.265 µM): 0.416
relative viability ([23]; first compound 4 µM): 0.352
relative viability ([24]; first compound 0.04 µM): 0.48
relative viability ([24]; first compound 0.1265 µM): 0.457
relative viability ([24]; first compound 0.4 µM): 0.488
relative viability ([24]; first compound 1.265 µM): 0.461
relative viability ([24]; first compound 4 µM): 0.39

Reference: the supplement of paper PMC10307832
